Laboratory results as given in patent US9765035B2 (priority 2013, dated 2017).
Like-named read-outs stand apart in the source and are kept apart here.

Target: human PRMT6 (Homo sapiens, UniProt Q96LA8)
Test: biochemical
Excerpt: General Materials. S-adenosylmethionine (SAM), S-adenosylhomocysteine (SAH), bicine, Tween20, dimethylsulfoxide (DMSO), bovine skin gelatin (BSG), sodium butyrate and Tris(2-carboxyethyl)phosphine hydrochloride solution (TCEP) were purchased from Sigma-Aldrich at the highest level of purity possible. ^3H-SAM was purchase from American Radiolabeled Chemicals with a specific activity of 80 Ci/mmol. 384-well streptavidin Flashplates were purchased from PerkinElmer.
Substrates. Peptide representative of human histone H4 residues 36-50 was synthesized with an N-terminal linker-affinity tag motif and a C-terminal amide cap by 21st Century Biochemicals. The peptide was purified by high-performance liquid chromatography (HPLC) to greater than 95% purity and confirmed by liquid chromatography mass spectrometry (LC-MS). The sequence was Biot-Ahx-[…]-amide and contained a monomethylated lysine at position 44 (SEQ ID NO.:5).
Molecular Biology: Full-length human PRMT6 (NM_018137.2) transcript clone was amplified from an HEK 293 cDNA library, incorporating a flanking 5′ sequence encoding a FLAG tag ([…]) (SEQ ID NO.:6) fused directly to Ser 2 of PRMT6 and a 3′ sequence encoding a hexa His sequence (HHHHHH) (SEQ ID NO.: 17) fused directly to Asp 375. The amplified gene was subcloned into pFastBacMam (Viva Biotech).
Protein Expression. Recombinant baculovirus were generated according to Bac-to-Bac kit instructions (Life Technologies). […] Infections were carried out at 37° C. for 48 hours, harvested by centrifugation, and stored at −80° C. for purification.
Protein Purification. […] Column was washed with 20 mM imidazole in the same buffer and Flag-PRMT6-His was eluted with 150 mM imidazole. Pooled fractions were dialysed against buffer Ni-A and further purified by anti-flag M2 affinity chromatography. Flag-PRMT6-His was eluted with 200 ug/ml FLAG peptide in the same buffer. Pooled fractions were dialysed in 20 mM Tris, 150 mM NaCl, 10% glycerol and 5 mM β-mercaptoethanol, pH 7.8. The purity of recovered protein was 95%.
General Procedure for PRMT6 Enzyme Assays on Peptide Substrates. The assays were all performed in a buffer consisting of 20 mM Bicine (pH=7.6), 1 mM TCEP, 0.005% BSG, and 0.002% Tween 20, prepared on the day of use. Compounds in 100% DMSO (1 ul) were spotted into a polypropylene 384-well V-bottom plates (Greiner) using a Platemate Plus outfitted with a 384-channel head (Thermo Scientific). DMSO (1 ul) was added to Columns 11, 12, 23, 24, rows A-H for the maximum signal control and 1 ul of SAH, a known product and inhibitor of PRMT6, was added to columns 11, 12, 23, 24, rows I-P for the minimum signal control. A cocktail (40 ul) containing the PRMT6 enzyme was added by Multidrop Combi (Thermo-Fisher). The compounds were allowed to incubate with PRMT6 for 30 min at room temperature, then a cocktail (10 ul) containing SAM and peptide was added to initiate the reaction (final volume=51 ul). The final concentrations of the components were as follows: PRMT6 was 1 nM, ^3H-SAM was 200 nM, non-radiolabeled SAM was 250 nM, peptide was 75 nM, SAH in the minimum signal control wells was 1 mM, and the DMSO concentration was 2%. The assays were stopped by the addition of non-radiolabeled SAM (10 ul) to a final concentration of 400 uM, which dilutes the ^3H-SAM to a level where its incorporation into the peptide substrate is no longer detectable. 50 ul of the reaction in the 384-well polypropylene plate was then transferred to a 384-well Flashplate and the biotinylated peptides were allowed to bind to the streptavidin surface for at least 1 hour before being washed once with 0.1% Tween20 in a Biotek EL×405 plate washer. The plates were then read in a PerkinElmer TopCount plate reader to measure the quantity of ^3H-labeled peptide bound to the Flashplate surface, measured as disintegrations per minute (dpm) or alternatively, referred to as counts per minute (cpm). […]

[1] = biochemical evaluation, peptide substrate, read-out: PRMT6 IC50
[2] = single experiment or average of multiple experiments, read-out: PRMT6 biochemical evaluation (numerical)

Chain of human PRMT6 (Q96LA8 with tags, fused parts or gaps): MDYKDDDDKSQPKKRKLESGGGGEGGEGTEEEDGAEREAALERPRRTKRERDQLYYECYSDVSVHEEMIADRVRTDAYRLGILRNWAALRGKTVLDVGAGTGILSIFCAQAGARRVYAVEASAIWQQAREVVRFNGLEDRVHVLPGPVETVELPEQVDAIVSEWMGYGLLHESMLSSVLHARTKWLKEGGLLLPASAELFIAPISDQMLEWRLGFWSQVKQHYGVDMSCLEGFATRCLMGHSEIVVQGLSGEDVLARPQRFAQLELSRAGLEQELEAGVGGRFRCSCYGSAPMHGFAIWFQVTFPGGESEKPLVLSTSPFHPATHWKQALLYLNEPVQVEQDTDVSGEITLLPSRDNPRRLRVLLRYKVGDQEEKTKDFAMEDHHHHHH

| Compound | IC50 [1] [nM] | IC50 [2] [nM] | IC50 [nM] | IC50 (PRMT6 biochemical evaluation (numerical), single experiment or average of multiple experiments) [nM] |
| --- | --- | --- | --- | --- |
| CN(CCN)Cc1n[nH]c2ccc(OCc3ccccc3)cc12 [Compound 1B] | < 100 | 9.44 |  |  |
| CC(C)COc1ccc2[nH]nc(CN(C)CCN)c2c1 [Compound 2, N1-((5-iso-butoxy-1H-indazol-3-yl)methyl)-N1-methylethane-1,2-diamine] | 101 to 1000 | 113 |  |  |
| CNCCN(C)Cc1nn(C)c2ccc(OCC(C)C)cc12 [Compound 3, N^1-((5-iso-butoxy-1-methyl-1H-indazol-3-yl)methyl)-N^1,N^2-dimethylethane-1,2-diamine] | 101 to 1000 | 514 |  |  |
| CNCCN(C)Cc1n[nH]c2ccc(OCCOC)cc12 [Compound 5, N^1-((5-(2-methoxyethoxy)-1H-indazol-3-yl)methyl)-N^1,N^2-dimethylethane-1,2-diamine] | < 100 | 84.8 |  |  |
| CNCCN(C)Cc1n[nH]c2ccc(OCCCOC)cc12 [Compound 6] | < 100 | 39.3 |  |  |
| CNCCN(C)Cc1n[nH]c2ccc(OCCc3ccccc3)cc12 [Compound 7] | < 100 | 6.78 |  |  |
| CNCCN(C)Cc1n[nH]c2ccc(OCCC(C)C)cc12 [Compound 8] | < 100 | 56 |  |  |
| CNCCN(C)Cc1n[nH]c2ccc(OC(C)Cc3ccccc3)cc12 (stereo not shown) [Compound 9] | < 100 | 13.9 |  |  |
| CNCCN(C)Cc1n[nH]c2ccc(Oc3ccccc3)cc12 [Compound 10, N^1,N^2-dimethyl-N^1-((5-phenoxy-1H-indazol-3-yl)methyl)ethane-1,2-diamine] | 101 to 1000 | 125 |  |  |
| CNCCN(C)Cc1n[nH]c2ccc(OC3CCCC3)cc12 [Compound 11] | < 100 | 9.68 |  |  |
| CNCCN(C)Cc1n[nH]c2ccc(OCc3ccccn3)cc12 [Compound 12] | < 100 | 44.1 |  |  |
| CNCCN(C)Cc1n[nH]c2ccc(OCc3ccc(C#N)cc3)cc12 [Compound 13] | < 100 | 4.47 |  |  |
| CNCCN(C)Cc1n[nH]c2ccc(OCc3cccc(C#N)c3)cc12 [Compound 14] | < 100 | 5.29 |  |  |
| CNCCN(C)Cc1n[nH]c2ccc(OCc3cc[nH]n3)cc12 [Compound 17] | < 100 | 7.81 |  |  |
| CNCCN(C)Cc1n[nH]c2ccc(OC3CCCCC3)cc12 [Compound 18] | < 100 | 10.3 |  |  |
| CNCCN(C)Cc1n[nH]c2ccc(OCC(C)c3ccccc3)cc12 (stereo not shown) [Compound 19] | < 100 | 19.3 |  |  |
| CNCCN(C)Cc1n[nH]c2ccc(OCc3ccn(C)n3)cc12 [Compound 20] | < 100 | 37.4 |  |  |
| CNCCN(C)Cc1n[nH]c2cccc(OCc3ccccc3)c12 [Compound 21] | < 100 | 21.5 |  |  |
| CNCCN(C)Cc1n[nH]c2ccc(Oc3cccc(OC)c3)cc12 [Compound 22] | < 100 | 33.1 |  |  |
| CNCCN(C)Cc1n[nH]c2ccc(OCc3ccc(C(C)=O)cc3)cc12 [Compound 23] | < 100 | 96.6 |  |  |
| CNCCN(C)Cc1n[nH]c2ccc(Oc3ccccc3OC)cc12 [Compound 24] | 101 to 1000 | 80.3 |  |  |
| CNCCN(C)Cc1n[nH]c2ccc(OC3CCOC3)cc12 (stereo not shown) [Compound 25, N^1,N^2-dimethyl-N^1-((5-((tetrahydrofuran-3-yl)oxy)-1H-indazol-3-yl)methyl)ethane-1,2-diamine] | < 100 | 5.05 |  |  |

| Compound | IC50 [1] [nM] | IC50 [2] [nM] | IC50 [nM] | IC50 (PRMT6 biochemical evaluation (numerical), single experiment or average of multiple experiments) [nM] |
| --- | --- | --- | --- | --- |
| CNCCN(C)Cc1n[nH]c2ccc(Oc3cccc(C)c3)cc12 [Compound 26] | 101 to 1000 | 201 |  |  |
| CNCCN(C)Cc1n[nH]c2ccc(Oc3cccc(Cl)c3)cc12 [Compound 27, N^1-((5-(3-chlorophenoxy)-1H-indazol-3-yl)methyl)-N^1,N^2-dimethylethane-1,2-diamine] | 101 to 1000 | 53.7 |  |  |
| CNCCN(C)Cc1n[nH]c2ccc(Oc3cccc(C#N)c3)cc12 [Compound 28] | 101 to 1000 | 150 |  |  |
| CNCCN(C)Cc1n[nH]c2ccc(OC3CCOCC3)cc12 [Compound 29, N^1,N^2-dimethyl-N^1-((5-((tetrahydro-2H-pyran-4-yl)oxy)-1H-indazol-3-yl)methyl)ethane-1,2-diamine] | 101 to 1000 | 178 |  |  |
| CNCCN(C)Cc1n[nH]c2ccc(Oc3ccccc3Cl)cc12 [Compound 30] | 101 to 1000 | 131 |  |  |
| CNCCN(C)Cc1n[nH]c2cccc(OCCC(C)C)c12 [Compound 31] | 1010 to 3000 | 135 |  |  |
| CNCCN(C)Cc1nn(C)c2ccc(OCc3ccc(C#N)cc3)cc12 [Compound 32] | < 100 | 156 |  |  |
| CNCCN(C)Cc1n[nH]c2ccc(OCc3ccn(CC(C)C)n3)cc12 [Compound 33] | < 100 | 1110 |  |  |
| CNCCN(C)Cc1c2cc(OCc3ccc(C#N)cc3)ccc2nn1C(C)C [Compound 34] | 3010 to 10000 | 14.9 |  |  |
| CNCCN(C)Cc1n[nH]c2ccc(OC)cc12 [Compound 35] | 3010 to 10000 | 35.7 |  |  |
| CNCCN(C)Cc1n[nH]c2ccc(O)cc12 [Compound 36, 3-((methyl(2-(methylamino)ethyl)amino)methyl)-1H-indazol-5-ol] | 1010 to 3000 | 6670 |  |  |
| CNCCN(C)Cc1n[nH]c2ccc(Oc3ccc(C#N)cc3)cc12 [Compound 37] | 101 to 1000 | 4840 |  |  |
| CNCCN(C)Cc1nn(C2CCN(C(C)=O)CC2)c2ccc(OCc3ccc(C#N)cc3)cc12 [Compound 38] | 101 to 1000 | 1870 |  |  |
| CNCCN(C)Cc1n[nH]c2ccc(Oc3ccc(C(F)(F)F)cc3)cc12 [Compound 39] | 101 to 1000 | 694 |  |  |
| CNCCN(C)Cc1n[nH]c2cccc(OCCC(O)CO)c12 (stereo not shown) [Compound 40] | 1010 to 3000 | 223 |  |  |
| CNCCN(C)Cc1n[nH]c2cccc(OCCCC(O)CO)c12 (stereo not shown) [Compound 41, 5-((3-((methyl(2-(methylamino)ethyl)amino)methyl)-1H-indazol-4-yl)oxy)pentane-1,2-diol] | 1010 to 3000 | 145 |  |  |
| CNCCN(C)Cc1n[nH]c2ccc(C(C)C)cc12 [Compound 42, N^1-((5-isopropyl-1H-indazol-3-yl)methyl)-N^1,N^2-dimethylethane-1,2-diamine] | < 100 | 2340 |  |  |
| CNCCN(C)Cc1n[nH]c2ccc(N3CCC4(CCCCC4)CC3)cc12 [Compound 43, N^1-((5-(3-azaspiro[5.5]undecan-3-yl)-1H-indazol-3-yl)methyl)-N^1,N^2-dimethylethane-1,2-diamine] |  |  | < 100 | 1800 |
| CNCCN(C)Cc1n[nH]c2ccc(C3CCOCC3)cc12 [Compound 44, N^1,N^2-dimethyl-N^1-((5-(tetrahydro-2H-pyran-4-yl)-1H-indazol-3-yl)methyl)ethane-1,2-diamine] | < 100 | 72 |  |  |
| CNCCN(C)Cc1n[nH]c2ccc(C3=CCOCC3)cc12 [Compound 45] | < 100 | 58.1 |  |  |
| CNCCN(C)Cc1n[nH]c2ccc(N3CCCCC3)cc12 [Compound 46, N^1,N^2-dimethyl-N^1-((5-(piperidin-1-yl)-1H-indazol-3-yl)methyl)ethane-1,2-diamine] | < 100 | 40.6 |  |  |
| CNCCN(C)Cc1n[nH]c2ccc(C3CCCCC3)cc12 [Compound 47, N^1-((5-cyclohexyl-1H-indazol-3-yl)methyl)-N^1,N^2-dimethylethane-1,2-diamine] | < 100 | 74.3 |  |  |
